Columns and labels:
α5-GABAA-Rs = target: T1, α5-GABAA-Rs (Mus musculus, UniProt P22723+Q8BHJ7); experiment: Tonic current mediated by α5-GABAA-Rs, whole-cell patch clamp in hippocampal slices; assay type: cell-based
T1 construct: from tissue; host or cells: mouse hippocampal slices; dentate granule cells and CA1 pyramidal neurons
Method: Mice were anesthetized with 2.5% Avertin. After decapitation, brains were rapidly dissected out and placed in ice-cold cutting solution containing: 79 mM NaCl, 80 mM sucrose, 26 mM NaHCO3, 10 mM glucose, 2.5 mM KCl, 1.25 mM NaH2PO4, 7 mM MgSO4, and 0.5 mM CaCl2 for tonic current recordings. The cutting solution for field EPSP recordings contained: 230 mM sucrose, 26 mM NaHCO3, 20 mM glucose, 2.5 mM KCl, 1.25 mM NaH2PO4, 10 mM MgSO4, and 0.5 mM CaCl2. Both solutions were bubbled with 95% O2/5% CO2. Hippocampal slices were cut at 350 μm with a vibratome (VT1200S, Leica, Germany) and transferred to a transitional chamber containing one half of cutting solution and one half of standard artificial cerebrospinal fluid (ACSF). The ACSF was composed of: 125.0 mM NaCl, 2.5 mM KCl, 1.3 mM MgSO4, 26.0 mM NaHCO3, 1.25 mM NaH2PO4, 2.0 mM CaCl2, and mM 10 glucose (290-300 mOsmol; gassed with 95% O2/5% CO2, pH ˜7.4). Slices were then incubated in ACSF at 32° C. for 30 minutes to recover. Subsequently, slices were maintained at room temperature for another 30 minutes before recording. Individual slices were then transferred to a submerged recording chamber where they were continuously perfused (2-3 mL/minute) with ACSF saturated by 95% O2/5% CO2 at 32° C.
Whole-cell voltage clamp recordings were performed on dentate gyrus granule cells using a pipette solution containing: 135 mM CsCl, 5 mM Na-phosphocreatine, 10 mM HEPES, 5 mM EGTA, 4 mM MgATP, 5 mM QX-314, and 0.5 mM Na2GTP (pH 7.3 adjusted with CsOH, 280-290 mOsm/L). Pipette resistance was 2-5 MΩ, and series resistance was typically 20-40 MΩ. To record tonic GABA current, 10 μM CNQX and 50 μM DL-APV were added into the ACSF to block glutamate receptors. In some experiments, 5 μM GABA also was added into the ACSF to reveal larger tonic GABA current and increase the signal-to-noise ratio. […] The membrane potential was held at −70 mV. Data was acquired using pClamp 9 software (Molecular Devices; sampled at 10 kHz and filtered at 1 kHz), and analyzed with Clampfit 9.0 software (Molecular Devices). Field excitatory postsynaptic potentials (fEPSPs) were recorded with glass electrodes filled with 1 M NaCl and 25 mM HEPES (pH 7.3), and were evoked every 20 seconds with a parallel bipolar tungsten electrode (MicroProbes, USA), which was placed at medial perforant path in the dentate gyrus. Three evoked responses were averaged to obtain a data point. […]
The following was performed to investigate which subtype of GABAA-Rs mediate the enhanced tonic GABA current in AD dentate granule cells. […] Quantitatively, the tonic current blocked by L-655,708 in AD dentate granule cells was more than doubled that in WT animals (FIG. 5, panel e; WT, 35.4±6.3 pA, n=12; AD, 98.7±12.9 pA, n=9; p<0.001). […]

LTP in DG = experiment: Long-term potentiation (LTP) in dentate gyrus, hippocampal slice field EPSP recordings; assay type: cell-based, mouse; details: 100 nM; 5xFAD dentate granule cells
Method: (§1) Mice were anesthetized with 2.5% Avertin. After decapitation, brains were rapidly dissected out and placed in ice-cold cutting solution containing: 79 mM NaCl, 80 mM sucrose, 26 mM NaHCO3, 10 mM glucose, 2.5 mM KCl, 1.25 mM NaH2PO4, 7 mM MgSO4, and 0.5 mM CaCl2 for tonic current recordings. The cutting solution for field EPSP recordings contained: 230 mM sucrose, 26 mM NaHCO3, 20 mM glucose, 2.5 mM KCl, 1.25 mM NaH2PO4, 10 mM MgSO4, and 0.5 mM CaCl2. Both solutions were bubbled with 95% O2/5% CO2. […]
(§2) Whole-cell voltage clamp recordings were performed on dentate gyrus granule cells using a pipette solution containing: 135 mM CsCl, 5 mM Na-phosphocreatine, 10 mM HEPES, 5 mM EGTA, 4 mM MgATP, 5 mM QX-314, and 0.5 mM Na2GTP (pH 7.3 adjusted with CsOH, 280-290 mOsm/L). […] Data was acquired using pClamp 9 software (Molecular Devices; sampled at 10 kHz and filtered at 1 kHz), and analyzed with Clampfit 9.0 software (Molecular Devices). Field excitatory postsynaptic potentials (fEPSPs) were recorded with glass electrodes filled with 1 M NaCl and 25 mM HEPES (pH 7.3), and were evoked every 20 seconds with a parallel bipolar tungsten electrode (MicroProbes, USA), which was placed at medial perforant path in the dentate gyrus. […]

5xFAD mice = experiment: Y-maze spontaneous alternation task; assay type: in vivo, mouse; details: 1 mg kg-1, i.p., once per day for one week, p<0.05
Method: L-655,708 was dissolved at 1 mg/mL in DMSO, and frozen in storage aliquots. The working solution was diluted 10 times in normal saline solution. […] The last injection was administrated 30 minutes before behavioral test.
Spontaneous alternation performance was tested as described elsewhere (Oakley et al., J. Neurosci., 26(40):10129-10140 (2006)). […] It allows the assessment of hippocampus-dependent spatial working memory. Each mouse was placed in the center of a symmetrical Y-maze and was allowed to explore freely through the maze during an 8 minute session. The first two minutes were not included for data analysis because mice were exploring new environment. The total number and the sequence of arm entries in the last 6 minutes were recorded and analyzed. Arm entry was defined as the hind paws of the mice had been completely placed in the arm. Analysis was done blind. The percentage of alternation is the number of triads containing entries into all three arms divided by the maximum possible alternations (the total number of arms entered minus 2)×100.
A behavioral analysis was conducted to test the effect of enhanced tonic inhibition on the cognitive function of 5xFAD animals. […] Therefore, it was concluded that the abnormal tonic inhibition in DG is an important contributing factor toward the learning and memory deficit in AD.

human GAT-3 polypeptide = target: T2, human GAT-3 polypeptide (Homo sapiens, UniProt P48066); details: cited from earlier work
T2 sequence (P48066 1-632): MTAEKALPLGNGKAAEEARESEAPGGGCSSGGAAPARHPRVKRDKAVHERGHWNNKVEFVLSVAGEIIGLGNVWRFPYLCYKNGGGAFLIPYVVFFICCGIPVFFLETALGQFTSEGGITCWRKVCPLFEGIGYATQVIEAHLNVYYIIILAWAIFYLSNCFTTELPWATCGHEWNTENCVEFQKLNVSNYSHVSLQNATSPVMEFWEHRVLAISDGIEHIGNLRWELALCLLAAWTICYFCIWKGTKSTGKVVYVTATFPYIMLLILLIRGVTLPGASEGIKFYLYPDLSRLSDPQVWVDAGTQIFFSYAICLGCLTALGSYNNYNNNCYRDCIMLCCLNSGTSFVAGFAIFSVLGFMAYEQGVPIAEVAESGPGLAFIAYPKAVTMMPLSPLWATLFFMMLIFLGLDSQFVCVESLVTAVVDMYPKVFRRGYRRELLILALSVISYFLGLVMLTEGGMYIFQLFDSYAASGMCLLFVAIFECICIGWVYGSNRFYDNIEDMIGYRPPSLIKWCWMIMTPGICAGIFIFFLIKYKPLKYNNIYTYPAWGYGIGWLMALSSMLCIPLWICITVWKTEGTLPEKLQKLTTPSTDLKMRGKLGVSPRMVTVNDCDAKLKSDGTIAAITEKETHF

human GAT-1 polypeptide = human GAT-1 polypeptide (Homo sapiens, UniProt P30531); details: cited from earlier work
human GAT-1 polypeptide, sequence (P30531 whole entry): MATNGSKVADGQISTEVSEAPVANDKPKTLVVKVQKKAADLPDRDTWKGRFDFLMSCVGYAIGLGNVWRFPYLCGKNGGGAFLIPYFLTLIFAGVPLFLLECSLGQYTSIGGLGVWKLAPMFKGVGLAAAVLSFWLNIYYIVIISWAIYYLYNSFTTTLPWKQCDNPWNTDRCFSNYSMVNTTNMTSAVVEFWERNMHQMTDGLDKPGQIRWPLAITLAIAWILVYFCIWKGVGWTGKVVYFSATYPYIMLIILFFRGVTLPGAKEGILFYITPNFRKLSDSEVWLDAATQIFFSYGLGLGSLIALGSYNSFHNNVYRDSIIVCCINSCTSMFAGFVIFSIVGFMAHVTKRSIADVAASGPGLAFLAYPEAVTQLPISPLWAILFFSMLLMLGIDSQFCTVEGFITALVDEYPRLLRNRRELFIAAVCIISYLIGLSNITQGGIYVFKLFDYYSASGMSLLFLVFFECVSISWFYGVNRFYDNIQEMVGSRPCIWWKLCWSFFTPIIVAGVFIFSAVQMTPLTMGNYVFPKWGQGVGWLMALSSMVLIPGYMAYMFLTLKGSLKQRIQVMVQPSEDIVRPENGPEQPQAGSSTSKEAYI

human GAT-2 polypeptide = target: T3, human GAT-2 polypeptide (Homo sapiens, UniProt Q9NSD5); details: cited from earlier work
T3 sequence (Q9NSD5 1-602): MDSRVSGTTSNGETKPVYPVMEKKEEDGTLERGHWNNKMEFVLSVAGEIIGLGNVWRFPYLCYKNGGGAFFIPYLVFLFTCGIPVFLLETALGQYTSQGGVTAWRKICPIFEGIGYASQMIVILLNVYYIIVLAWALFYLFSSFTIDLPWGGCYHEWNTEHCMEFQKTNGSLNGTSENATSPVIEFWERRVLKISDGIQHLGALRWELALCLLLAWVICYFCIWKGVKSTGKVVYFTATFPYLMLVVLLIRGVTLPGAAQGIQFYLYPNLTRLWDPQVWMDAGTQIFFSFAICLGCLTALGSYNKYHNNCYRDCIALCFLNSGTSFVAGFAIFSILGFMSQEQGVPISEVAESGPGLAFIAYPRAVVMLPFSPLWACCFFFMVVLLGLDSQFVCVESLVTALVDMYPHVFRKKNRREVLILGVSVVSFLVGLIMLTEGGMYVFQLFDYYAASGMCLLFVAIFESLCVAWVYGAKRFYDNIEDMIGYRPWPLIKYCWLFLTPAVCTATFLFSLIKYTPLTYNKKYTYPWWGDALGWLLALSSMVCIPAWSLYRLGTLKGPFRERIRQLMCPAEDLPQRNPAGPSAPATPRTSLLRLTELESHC

[1] = target: T4, neuronal GABA transporters (Mus musculus, UniProt P31648); experiment: Tonic current induced by blockade of neuronal GABA transporters in dentate granule cells; assay type: cell-based; details: P>0.4
T4 construct: from tissue; host or cells: mouse hippocampal slices, dentate granule cells
Method: FIG. 7, panel a, contains typical traces showing tonic current induced by blockade of neuronal GABA transporters with NO-711 (1-[2-[[(Diphenylmethylene)imino]oxy]ethyl]-1,2,5,6-tetrahydro-3-pyridinecarboxylic acid hydrochloride hydrochloride). Large mIPSCs were truncated to better illustrate the tonic current.
Mice were anesthetized with 2.5% Avertin. After decapitation, brains were rapidly dissected out and placed in ice-cold cutting solution containing: 79 mM NaCl, 80 mM sucrose, 26 mM NaHCO3, 10 mM glucose, 2.5 mM KCl, 1.25 mM NaH2PO4, 7 mM MgSO4, and 0.5 mM CaCl2 for tonic current recordings. […]
as §2

δ-GABAA-Rs = target: T5, δ-GABAA-Rs (Mus musculus, UniProt P22933+P63137+Q9D6F4); experiment: THIP-induced tonic current in dentate granule cells of hippocampal slices; assay type: cell-based; details: 2 μM, n=8
T5 construct: from tissue; host or cells: mouse hippocampal slices, dentate granule cells
T5 sequence (P22933 17-449 limits assumed): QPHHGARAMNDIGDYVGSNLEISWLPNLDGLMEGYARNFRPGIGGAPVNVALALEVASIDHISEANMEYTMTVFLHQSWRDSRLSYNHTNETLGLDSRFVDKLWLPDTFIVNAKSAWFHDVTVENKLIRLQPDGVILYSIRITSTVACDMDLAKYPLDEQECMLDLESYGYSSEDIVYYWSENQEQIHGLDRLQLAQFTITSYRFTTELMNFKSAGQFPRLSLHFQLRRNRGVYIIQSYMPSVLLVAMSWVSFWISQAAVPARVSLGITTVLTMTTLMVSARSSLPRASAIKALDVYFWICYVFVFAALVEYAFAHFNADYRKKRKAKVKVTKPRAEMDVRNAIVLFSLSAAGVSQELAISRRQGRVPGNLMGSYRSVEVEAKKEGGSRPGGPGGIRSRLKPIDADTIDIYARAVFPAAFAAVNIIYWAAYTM
T5 sequence (Q9D6F4 36-552): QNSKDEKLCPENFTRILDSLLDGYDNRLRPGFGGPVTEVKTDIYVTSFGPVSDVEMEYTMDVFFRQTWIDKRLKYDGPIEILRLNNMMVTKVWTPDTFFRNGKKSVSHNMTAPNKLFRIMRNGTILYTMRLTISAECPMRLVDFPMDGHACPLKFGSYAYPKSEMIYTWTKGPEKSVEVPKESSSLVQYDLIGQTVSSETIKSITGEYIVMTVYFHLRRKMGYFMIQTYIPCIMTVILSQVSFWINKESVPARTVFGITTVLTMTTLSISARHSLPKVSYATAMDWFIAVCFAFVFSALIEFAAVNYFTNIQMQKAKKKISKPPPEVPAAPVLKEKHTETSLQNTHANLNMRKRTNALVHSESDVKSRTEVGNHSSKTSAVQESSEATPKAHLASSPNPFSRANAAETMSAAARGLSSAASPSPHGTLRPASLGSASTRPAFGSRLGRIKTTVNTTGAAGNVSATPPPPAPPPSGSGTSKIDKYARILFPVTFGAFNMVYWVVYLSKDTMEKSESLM
T5 sequence (P63137 25-474 limits assumed): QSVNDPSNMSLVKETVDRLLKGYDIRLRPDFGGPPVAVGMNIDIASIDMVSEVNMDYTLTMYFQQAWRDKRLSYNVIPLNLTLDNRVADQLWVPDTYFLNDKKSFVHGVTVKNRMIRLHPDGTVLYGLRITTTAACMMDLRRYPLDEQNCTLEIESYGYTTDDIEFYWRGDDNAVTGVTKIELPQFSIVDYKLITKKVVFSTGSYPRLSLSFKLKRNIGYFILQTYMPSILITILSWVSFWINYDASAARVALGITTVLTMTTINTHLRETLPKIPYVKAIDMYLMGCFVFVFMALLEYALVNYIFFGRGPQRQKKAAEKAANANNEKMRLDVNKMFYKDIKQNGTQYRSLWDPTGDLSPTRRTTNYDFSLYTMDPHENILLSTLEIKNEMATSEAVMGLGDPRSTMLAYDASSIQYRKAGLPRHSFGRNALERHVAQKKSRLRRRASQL
Method: as §1, §2

T1 sequence (P63080 26-473): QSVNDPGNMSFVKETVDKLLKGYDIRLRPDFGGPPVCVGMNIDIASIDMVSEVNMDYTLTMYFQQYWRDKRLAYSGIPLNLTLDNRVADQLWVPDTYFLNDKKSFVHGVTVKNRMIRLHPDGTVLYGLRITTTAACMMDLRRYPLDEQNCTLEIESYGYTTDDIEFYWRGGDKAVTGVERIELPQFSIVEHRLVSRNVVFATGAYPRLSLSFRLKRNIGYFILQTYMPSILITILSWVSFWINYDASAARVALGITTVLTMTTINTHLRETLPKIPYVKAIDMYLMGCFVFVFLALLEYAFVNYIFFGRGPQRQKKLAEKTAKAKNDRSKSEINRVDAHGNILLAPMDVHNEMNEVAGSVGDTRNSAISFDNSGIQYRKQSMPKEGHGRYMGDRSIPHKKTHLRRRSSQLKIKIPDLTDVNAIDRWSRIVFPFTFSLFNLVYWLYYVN
T1 sequence (Q8BHJ7 32-463): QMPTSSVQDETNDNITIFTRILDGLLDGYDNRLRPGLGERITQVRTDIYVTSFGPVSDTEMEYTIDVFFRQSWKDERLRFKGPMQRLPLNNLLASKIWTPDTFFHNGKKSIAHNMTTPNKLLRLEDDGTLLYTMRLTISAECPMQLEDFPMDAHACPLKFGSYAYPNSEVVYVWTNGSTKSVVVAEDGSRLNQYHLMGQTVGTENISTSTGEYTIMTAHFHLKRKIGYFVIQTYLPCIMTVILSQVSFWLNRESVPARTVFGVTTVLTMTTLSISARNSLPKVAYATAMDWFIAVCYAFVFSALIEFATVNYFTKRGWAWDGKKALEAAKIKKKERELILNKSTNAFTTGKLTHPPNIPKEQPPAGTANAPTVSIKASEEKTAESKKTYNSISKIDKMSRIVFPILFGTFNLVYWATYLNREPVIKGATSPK
T1 sequence (P22723 39-474): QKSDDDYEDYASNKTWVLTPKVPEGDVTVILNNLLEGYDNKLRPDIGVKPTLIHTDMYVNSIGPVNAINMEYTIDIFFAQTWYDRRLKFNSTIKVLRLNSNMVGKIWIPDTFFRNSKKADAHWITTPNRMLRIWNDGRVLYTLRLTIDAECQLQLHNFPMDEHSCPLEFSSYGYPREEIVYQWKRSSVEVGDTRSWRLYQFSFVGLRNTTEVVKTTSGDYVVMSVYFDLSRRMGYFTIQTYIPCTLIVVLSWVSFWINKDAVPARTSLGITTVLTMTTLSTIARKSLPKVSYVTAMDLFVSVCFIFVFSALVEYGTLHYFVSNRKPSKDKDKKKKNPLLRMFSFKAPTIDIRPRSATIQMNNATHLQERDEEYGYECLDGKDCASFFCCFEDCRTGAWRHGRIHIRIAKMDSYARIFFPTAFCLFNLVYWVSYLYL

CCOC(=O)c1ncn2c1C1CCCN1C(=O)c1cc(OC)ccc1-2 [L-655,708, 11,12,13,13a-tetrahydro-7-methoxy-9-oxo-9H-imidazo[1,5-a]pyrrolo[2,1-c][1,4]benzodiaz-epine-1-carboxylic acid, ethyl ester]
block of tonic current (α5-GABAA-Rs; 100 nM, AD (5xFAD) dentate granule cells): majority of tonic current in AD dentate granule cells was blocked | tonic current blocked by L-655,708 (α5-GABAA-Rs; AD (5xFAD) dentate granule cells, n=9): 98.7±12.9 pA | proportion of tonic current blocked, WT vs AD (α5-GABAA-Rs; CA1 neurons): similar | tonic current blocked by L-655,708 (α5-GABAA-Rs; WT dentate granule cells, n=12): 35.4±6.3 pA | effect on LTP impairment (LTP in DG): rescued the LTP impairment | effect on memory deficit (spontaneous alternation) (5xFAD mice): rescued the memory deficit

COc1ccc(C2(O)CCN(CCCn3c4ccccc4c4ccccc43)CC2)cc1 [NNC 05-2045, 1-(3-(9H-carbazol-9-yl)-1-propyl)-4-(4-methoxyphenyl)-4-piperidinol]
Ki (human GAT-3 polypeptide): < 10 µM | Ki (human GAT-1 polypeptide): > 20 µM | Ki (human GAT-2 polypeptide): > 10 µM

Cl.O=C(O)C1=CCCN(CCON=C(c2ccccc2)c2ccccc2)C1 [NO-711, 1-[2-[[(Diphenylmethylene)imino]oxy]ethyl]-1,2,5,6-tetrahydro-3-pyridinecarboxylic acid hydrochloride hydrochloride]
tonic currents revealed by NO-711, WT vs. 5xFAD [1]: no difference

Oc1noc2c1CCNC2 [THIP, 4,5,6,7-tetrahydroisoxazolo[5,4-c]pyridin-3-ol]
THIP-induced tonic current (δ-GABAA-Rs; AD (5xFAD) dentate granule cells): 60.7±10.4 pA | THIP-induced tonic current (δ-GABAA-Rs; WT dentate granule cells): 65.2±6.6 pA

Source: patent US10039756B2, “Reducing memory loss in mammals suffering from alzheimer's disease” (The Penn State Research Foundation, priority 2013, dated 2018)
